{"source": "patent US7700559B2", "about": "“Gonadotropin releasing hormone analogues conjugates with steroid hormones” (Medical Research Council, priority 2003, dated 2010)", "key": {"[1]": {"target": "T1, type I human GnRH receptor (Homo sapiens, UniProt P30968)", "T1 construct": "expressed in transfected cells; host or cells: COS-1 cells (membranes)", "T1 sequence (P30968 1-328)": "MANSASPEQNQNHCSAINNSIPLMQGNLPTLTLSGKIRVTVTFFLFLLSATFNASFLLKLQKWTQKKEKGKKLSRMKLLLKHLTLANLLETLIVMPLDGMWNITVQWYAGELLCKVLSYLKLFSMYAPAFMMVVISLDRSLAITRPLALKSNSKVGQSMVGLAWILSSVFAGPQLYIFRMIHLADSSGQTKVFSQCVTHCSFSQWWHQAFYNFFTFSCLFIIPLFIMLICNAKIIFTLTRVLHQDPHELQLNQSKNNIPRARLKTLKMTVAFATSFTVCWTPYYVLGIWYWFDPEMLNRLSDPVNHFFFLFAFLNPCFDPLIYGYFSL", "test": "Membrane binding assay of GnRH agonist-progesterone conjugate, COS-1 cells transfected with hGnRH-R, 125I[His5,D-Tyr6]GnRH", "details": "n=1, data not shown, read-out: ED50, binding to type I human GnRH receptor", "experimental": "Membrane binding assay of GnRH agonist-progesterone conjugates was carried out on COS-1 cells transfected with hGnRH-R. COS-1 cells in 100 mm dishes were washed twice in HEPES modified DMEM and transfected with 15 μg DNA in filter-sterilised DEAE dextran with HEPES buffered saline, penicillin/streptomycin and DMEM. After five hours incubation at 37° C., the media was removed and replaced with DMEM containing penicillin/streptomycin, 2% FCS and 2% chloroquine 10 mM and plates were incubated for a further one hour. The media was aspirated, cells were washed and normal media was added until assay 24 hours later.\nMembrane Binding Assay of GnRH agonist-Progesterone Conjugate:\nTransfected COS-1 cells were washed in PBS, removed from plates and centrifuged at 1500 rpm for five mins to pellet cells. The PBS was aspirated and the cells were resuspended in homogenization buffer (20 mM Tris, 2 mM MgCl2, pH 7.2), vortexed and left on ice for 10 minutes. The cell suspension was transferred to a 7 ml homogeniser (Jencons (Scientific) Ltd., Leighton Buzzard, Buckinghamshire) and plunged 15 times with a loose plunger and 15 times with a tight plunger. The homogenized cells were then centrifuged at 4° C. for 10 mins at top speed and the supernatant was removed with a vacuum pump. […] Filters were then counted immediately on a gamma counter."}, "[2]": {"target": "T2, rat type I GnRHR (Rattus norvegicus, UniProt P30969)", "T2 construct": "expressed in transfected cells", "T2 sequence (P30969 1-327)": "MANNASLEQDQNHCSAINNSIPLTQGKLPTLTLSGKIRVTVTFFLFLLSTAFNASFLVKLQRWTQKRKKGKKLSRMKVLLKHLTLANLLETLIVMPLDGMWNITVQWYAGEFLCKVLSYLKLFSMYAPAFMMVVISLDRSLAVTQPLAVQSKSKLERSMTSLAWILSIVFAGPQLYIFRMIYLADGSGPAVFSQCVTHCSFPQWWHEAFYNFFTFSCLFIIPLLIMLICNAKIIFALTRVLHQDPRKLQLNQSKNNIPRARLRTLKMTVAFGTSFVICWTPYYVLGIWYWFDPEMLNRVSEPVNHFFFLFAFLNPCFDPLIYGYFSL", "test": "Total inositol phosphate production in HEK293 cells stably expressing rat type I GnRHR", "type": "cell-based", "details": "n=2, read-out: EC50, stimulation of inositol phosphate production", "experimental": "A HEK293 stable cell line expressing the rat type I GnRHR developed in our laboratory was used for the inositol phosphate production assays. This cell line was maintained in DMEM containing 10% fetal calf serum, glutamine and penicillin/streptomycin with the addition of G418 at 500 μg/ml throughout culture. Where required, plates were coated with Poly-L-Lysine to enhance adherence to plasticware during assay.\nMeasurement of Total Inositol Phosphate Production\nRat type I GnRH receptive expressing HEK293 cells were plated out onto 12 well plates and incubated at 37° C., 5% CO2 for 24 hours, then incubated in special DMEM containing 1% dialysed FCS (with glutamine and penicillin/streptomycin) and 1 μl/well of myo-[2-^3H]inositol for a further 48 hours. After aspiration of media and washing with incubation buffer, a further 500 μl buffer containing 10 mM LiCl was added to the plates and then incubated at 37° C. for 30 mins. 1 μM agonist was added to each well to a final concentration of 0.1 μM and the plates were incubated under the same conditions for a further 1 hour. The reaction was terminated with 500 μl 10 mM formic acid, incubated at 4° C. for 30 mins. […] After addition of formic acid, ammonium formate (1 ml, 0.1M, 1M) and vortexing, 800 μl of the supernatant was counted with scintillation fluid."}, "[3]": {"target": "progesterone binding globulin (PBG)", "test": "Plasma protein binding assay, competition with [3H]progesterone in pregnant guinea pig plasma", "details": "read-out: IC50, inhibition of [3H]progesterone binding to PBG", "experimental": "(§1) Plasma Protein Binding Assay\n(§2) Plasma protein binding was determined by the competitive binding of steroid conjugates, in the presence of [1,2,6,7-^3H]progesterone or [^3H]cortisol, to pregnant guinea pig plasma or human pregnant serum respectively. 20 μl serum was diluted with 2 ml dextran-coated charcoal solution (0.25 g dextran T-70, 2.5 g charcoal decolorizing powder, activated acid washed [Merck Ltd., Lutterworth, Leicestershire] in 500 ml PBS) and incubated at room temperature. After 30 mins the suspension was centrifuged at 3000×g for 10 minutes, the supernatant was removed and the pellet was discarded. 100 μl of diluted serum was aliquoted into centrifuge tubes, followed by 1 pmol[^3H]steroid/100 μl PBS. 100 μl PBS (total binding) or 200 pmol/100 μl unlabelled competing ligand ([…]) was added to diluted serum in duplicate. Tubes were vortexed and incubated at room temperature for 1 hour, then for an additional 15 minutes on ice. A further 750 μl dextran-coated charcoal suspension was added and incubated for 10 minutes on ice, followed by centrifugation at 4° C. for 5 minutes. The supernatant fluid was counted."}, "[4]": {"target": "T3, cortisol binding globulin (CBG) (Homo sapiens, UniProt P08185)", "T3 construct": "from tissue; host or cells: human pregnant serum (charcoal-stripped, diluted)", "T3 sequence (P08185 23-405)": "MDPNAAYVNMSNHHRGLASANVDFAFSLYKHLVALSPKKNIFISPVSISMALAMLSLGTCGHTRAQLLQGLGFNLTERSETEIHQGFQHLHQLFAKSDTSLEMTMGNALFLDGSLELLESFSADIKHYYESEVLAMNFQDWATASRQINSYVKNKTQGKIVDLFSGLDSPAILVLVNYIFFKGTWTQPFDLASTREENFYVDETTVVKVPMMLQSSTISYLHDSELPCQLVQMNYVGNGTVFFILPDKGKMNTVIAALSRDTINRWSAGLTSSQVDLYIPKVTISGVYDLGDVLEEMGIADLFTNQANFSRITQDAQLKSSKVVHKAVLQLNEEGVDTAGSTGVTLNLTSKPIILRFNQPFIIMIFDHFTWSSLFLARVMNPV", "test": "Plasma protein binding assay, competition with [3H]cortisol in human pregnant serum", "details": "data not shown, read-out: IC50, prevention of [3H]cortisol binding", "experimental": "as §1, §2"}, "[5]": {"test": "In vivo male rabbit study, disappearance of iodinated analogue from whole blood", "details": "iodinated compound i.v. into ear vein, male rabbit, whole blood", "experimental": "In Vivo Studies in the Male Rabbit\nTo determine biological half-life of GnRH agonist-progesterone conjugates, 0.5 ml saline containing approximately 10,000,000 cpm of iodinated [D-Ala^6]GnRH or [D-Lys^6]GnRH-progesterone conjugate was injected as an i.v. bolus into the ear vein of a male rabbit. Rabbits were sedated with 0.4 ml Aceprom 10 (Milborrow Animal Health, Republic of South Africa) injected intramuscularly 3-4 minutes before start of experiment. A repeat injection was carried out after 2 hours. 1 ml blood samples were collected in heparinized tubes from an indwelling cannula placed in a vein of the contralateral ear. Whole blood was counted directly to determine disappearance from circulation. All experiments were carried out in accordance with Republic of South Africa regulations."}}, "data": [{"smiles": "CC(=O)[C@H]1CC[C@H]2[C@@H]3CCC4=CC(=O)CC[C@]4(C)[C@H]3[C@H](OC(=O)CCC(=O)NCCCC[C@@H](NC(=O)[C@H](Cc3ccc(O)cc3)NC(=O)[C@H](CO)NC(=O)[C@H](Cc3c[nH]c4ccccc34)NC(=O)[C@H](Cc3c[nH]cn3)NC(=O)[C@@H]3CCC(=O)N3)C(=O)N[C@@H](CC(C)C)C(=O)N[C@@H](CCCNC(=N)N)C(=O)N3CCC[C@H]3C(=O)NCC(N)=O)C[C@]12C", "note": "[GnRH agonist-progesterone conjugate, [DLys^6]GnRH conjugated to 11α-hydroxyprogesterone 11-succinate at the ε amine group of the D-Lys at position 6]", "values": [{"measurement": "EC50", "setting": "[1]", "value": 0.29, "unit": "nM"}, {"measurement": "EC50", "setting": "[2]", "value": 0.52, "unit": "nM"}, {"measurement": "IC50", "setting": "[3]", "value": 0.29, "unit": "nM"}, {"measurement": "IC50", "setting": "[4]", "value": 1200, "unit": "nM"}, {"measurement": "second phase half-life (metabolism and renal clearance)", "setting": "[5]", "value": "53 ± 13", "unit": "min"}]}]}
